Our source for the IC50 values is ChEMBL document CHEMBL1641389, “Penasins A-E, long-chain cytotoxic sphingoid bases, from a marine sponge Penares sp” (J Nat Prod, 2010).

The IC50 is the concentration that gives 50% inhibition.

≈ marks a conversion by molar mass, not a printed value.

Assay [1] deals with HeLa. Briefly: Cytotoxicity against human HeLa cells after 96 hrs by MTT assay. It counts as functional, cell-based. A general note: Tetrazolium dyes change colour on reduction, which living cells bring about.
Assay [2] has as its system P388. Briefly: Cytotoxicity against mouse P388 cells after 96 hrs by MTT assay. It is filed as functional, cell-based. Particulars: P388, 96 h.

Regarding `CCCCCCCCCCCCCCCC/C=C\CC/C=C\CCCC[C@@H]1OC[C@H](N)[C@@H]1O` [PENASIN], the concentration for half-maximal inhibition (IC50) was found to be 10 µg/mL (≈ 21.6 µM) in assay [1] and 50 µg/mL (≈ 108 µM) in assay [2].
Taken in the same sequence, the figures for `CCCCCCCCCCCCCCCC/C=C(\Cl)CC/C=C\CCCC[C@@H]1OC[C@H](N)[C@@H]1O` [PENASIN B] were 10 µg/mL (≈ 20.1 µM) and 50 µg/mL (≈ 100 µM).
